Measured values published in BindingDB's records for doi:10.1021/ja0277226 (Millennium Pharmaceuticals, 2002).

What was measured:
[1] = target: Angiotensin-converting enzyme 2 (Homo sapiens, UniProt Q9BYF1); assay: Enzyme Inhibition Assay; conditions: pH 6.5; 22 °C
Experimental: (§1) Enzyme assay was conducted in 384-well microplates format. Activity was monitored by measuring increase in fluorescence (excitation @320 nm, emission @405 nm) over a 60 minute time course using a BMG Polarstar Galaxy fluorescent plate reader. Compound IC50 values were determined using 10-pt concentration ranges. Rates of substrate hydrolysis were determined from time courses and converted to percent inhibition. Percent inhibition was plotted versus compound concentration and fit to the four parameter logistic equation by non-linear regression using Prism Graphpad software.

Carboxypeptidase A1 = target: T1, Carboxypeptidase A1 (Bos taurus, UniProt P00730); assay: CPA Inhibition Assay; conditions: pH 7.5; 22 °C
T1 sequence (P00730 whole entry): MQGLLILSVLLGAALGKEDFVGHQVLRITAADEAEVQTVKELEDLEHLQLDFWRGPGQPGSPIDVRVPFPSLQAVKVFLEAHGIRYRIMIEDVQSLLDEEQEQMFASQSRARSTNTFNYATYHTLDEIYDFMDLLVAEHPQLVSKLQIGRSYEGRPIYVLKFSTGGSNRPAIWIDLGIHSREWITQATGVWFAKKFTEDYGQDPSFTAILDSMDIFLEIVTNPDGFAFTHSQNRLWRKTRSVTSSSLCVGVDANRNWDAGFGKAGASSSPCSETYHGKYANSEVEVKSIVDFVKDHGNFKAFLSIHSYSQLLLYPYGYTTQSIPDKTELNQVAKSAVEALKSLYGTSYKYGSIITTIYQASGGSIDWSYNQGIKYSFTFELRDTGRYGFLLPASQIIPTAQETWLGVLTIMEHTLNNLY
Experimental: as §1, with “Assay for the inhibition of carboxypeptidase A (CPDA)” for “Enzyme assay”, “96-well” for “384-well”, “decrease” for “increase”, “absorbance (328” for “fluorescence (excitation @320 nm, emission @405”, “15” for “60”, “Spectromax 250 absorbance” for “BMG Polarstar Galaxy fluorescent”

[2] = target: T2, Angiotensin-converting enzyme (Sus scrofa, UniProt A1YQ85); assay: Enzyme Inhibition Assay; conditions: pH 7.5; 22 °C
T2 sequence (A1YQ85 whole entry): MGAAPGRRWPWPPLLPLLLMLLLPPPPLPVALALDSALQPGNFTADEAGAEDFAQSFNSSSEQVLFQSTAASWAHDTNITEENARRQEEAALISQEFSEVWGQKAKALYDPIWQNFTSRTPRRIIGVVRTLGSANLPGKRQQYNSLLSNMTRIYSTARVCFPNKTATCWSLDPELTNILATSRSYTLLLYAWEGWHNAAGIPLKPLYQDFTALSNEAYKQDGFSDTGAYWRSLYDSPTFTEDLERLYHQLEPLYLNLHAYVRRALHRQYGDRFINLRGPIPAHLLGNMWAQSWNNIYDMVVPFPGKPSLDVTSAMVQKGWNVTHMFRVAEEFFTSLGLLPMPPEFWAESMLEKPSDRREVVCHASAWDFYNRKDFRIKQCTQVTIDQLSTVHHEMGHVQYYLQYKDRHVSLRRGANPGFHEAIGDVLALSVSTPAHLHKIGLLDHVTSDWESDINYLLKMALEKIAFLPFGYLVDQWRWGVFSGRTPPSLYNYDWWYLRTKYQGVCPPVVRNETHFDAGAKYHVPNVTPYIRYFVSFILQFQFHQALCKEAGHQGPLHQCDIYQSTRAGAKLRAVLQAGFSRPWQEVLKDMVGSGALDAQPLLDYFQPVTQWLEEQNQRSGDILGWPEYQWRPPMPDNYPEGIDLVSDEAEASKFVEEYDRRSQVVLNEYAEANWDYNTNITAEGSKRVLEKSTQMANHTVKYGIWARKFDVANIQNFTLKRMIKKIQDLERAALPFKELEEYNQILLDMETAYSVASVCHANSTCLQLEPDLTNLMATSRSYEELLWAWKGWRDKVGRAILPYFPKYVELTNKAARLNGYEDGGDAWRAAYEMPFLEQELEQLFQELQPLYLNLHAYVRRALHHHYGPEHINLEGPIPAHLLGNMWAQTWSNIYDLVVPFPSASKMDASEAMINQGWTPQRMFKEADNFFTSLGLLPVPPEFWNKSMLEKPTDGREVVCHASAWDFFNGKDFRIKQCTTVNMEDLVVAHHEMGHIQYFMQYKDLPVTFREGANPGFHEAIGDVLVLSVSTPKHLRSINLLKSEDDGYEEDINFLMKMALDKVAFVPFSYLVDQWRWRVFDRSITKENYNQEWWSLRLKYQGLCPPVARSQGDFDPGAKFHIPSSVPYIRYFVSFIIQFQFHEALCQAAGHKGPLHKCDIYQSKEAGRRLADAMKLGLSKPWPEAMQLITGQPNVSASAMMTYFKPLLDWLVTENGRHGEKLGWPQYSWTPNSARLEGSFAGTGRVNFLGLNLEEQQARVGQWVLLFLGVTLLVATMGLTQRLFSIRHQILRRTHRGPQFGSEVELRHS
Experimental: as §1

Angiotensin-converting enzyme 2, sequence (Q9BYF1 whole entry): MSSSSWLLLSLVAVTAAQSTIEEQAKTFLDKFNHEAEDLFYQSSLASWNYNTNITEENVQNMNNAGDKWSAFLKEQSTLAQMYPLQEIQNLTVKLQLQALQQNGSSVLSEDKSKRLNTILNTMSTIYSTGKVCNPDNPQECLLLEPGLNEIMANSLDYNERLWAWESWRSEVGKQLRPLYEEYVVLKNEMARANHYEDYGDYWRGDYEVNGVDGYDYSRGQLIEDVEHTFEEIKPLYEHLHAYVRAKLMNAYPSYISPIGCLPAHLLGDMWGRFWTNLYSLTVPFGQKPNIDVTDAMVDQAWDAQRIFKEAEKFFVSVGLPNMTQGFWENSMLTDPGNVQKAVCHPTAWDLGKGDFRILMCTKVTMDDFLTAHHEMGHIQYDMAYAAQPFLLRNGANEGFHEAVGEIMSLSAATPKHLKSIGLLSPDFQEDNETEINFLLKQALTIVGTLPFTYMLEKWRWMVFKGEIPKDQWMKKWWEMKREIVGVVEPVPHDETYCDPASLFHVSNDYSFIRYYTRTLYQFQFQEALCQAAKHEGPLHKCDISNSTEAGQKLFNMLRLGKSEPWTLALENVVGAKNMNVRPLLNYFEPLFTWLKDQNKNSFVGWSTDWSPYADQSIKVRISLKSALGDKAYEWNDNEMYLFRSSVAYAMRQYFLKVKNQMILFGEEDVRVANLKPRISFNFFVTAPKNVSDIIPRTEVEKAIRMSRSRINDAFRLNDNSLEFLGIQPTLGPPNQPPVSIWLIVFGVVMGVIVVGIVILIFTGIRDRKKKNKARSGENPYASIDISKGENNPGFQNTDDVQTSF

Compound | IC50 [1] [µM] | IC50 (Carboxypeptidase A1) [µM] | IC50 [2] [µM]
CC[C@H](N[C@@H](Cc1cncn1Cc1ccccc1)C(=O)O)C(=O)O [(2S)-2-{[(1S)-2-(1-benzyl-1H-imidazol-5-yl)-1-carboxyethyl]amino}butanoic acid] | 0.3 | 2.8 | 
CC(C)C[C@H](N[C@@H](Cc1cncn1Cc1ccc([N+](=O)[O-])cc1)C(=O)O)C(=O)O [(2S)-2-{[(1S)-1-carboxy-2-{1-[(4-nitrophenyl)methyl]-1H-imidazol-5-yl}ethyl]amino}-4-methylpentanoic acid] | 0.076 |  | 
CC(C)C[C@H](N[C@@H](Cc1cncn1CC1CCCCC1)C(=O)O)C(=O)O [(2S)-2-{[(1S)-1-carboxy-2-[1-(cyclohexylmethyl)-1H-imidazol-5-yl]ethyl]amino}-4-methylpentanoic acid] | 0.27 |  | 
O=C(O)[C@H](Cc1ccccc1)N[C@@H](Cc1cncn1Cc1ccccc1)C(=O)O [(2S)-2-{[(1S)-2-(1-benzyl-1H-imidazol-5-yl)-1-carboxyethyl]amino}-3-phenylpropanoic acid] | 0.34 |  | 
Cc1ccccc1Cn1cncc1C[C@H](N[C@@H](CC(C)C)C(=O)O)C(=O)O [(2S)-2-{[(1S)-1-carboxy-2-{1-[(2-methylphenyl)methyl]-1H-imidazol-5-yl}ethyl]amino}-4-methylpentanoic acid] | 0.29 |  | 
CC(C)C[C@H](N[C@@H](Cc1cncn1Cc1ccc(OC(F)(F)F)cc1)C(=O)O)C(=O)O [(2S)-2-{[(1S)-1-carboxy-2-(1-{[4-(trifluoromethoxy)phenyl]methyl}-1H-imidazol-5-yl)ethyl]amino}-4-methylpentanoic acid] | 0.052 |  | 
CC(C)C[C@H](N[C@@H](Cc1cncn1Cc1cc(Cl)cc(Cl)c1)C(=O)O)C(=O)O [MLN4760] | 0.00044 | 27 | > 100

Continued, values first:

IC50 [1] [µM] | IC50 (Carboxypeptidase A1) [µM] | IC50 [2] [µM] | Compound
0.032 | > 10 | > 10 | Cc1ccc(Cn2cncc2C[C@H](N[C@@H](CC(C)C)C(=O)O)C(=O)O)cc1 [(2S)-2-{[(1S)-1-carboxy-2-{1-[(4-methylphenyl)methyl]-1H-imidazol-5-yl}ethyl]amino}-4-methylpentanoic acid]
0.01 | 12 | > 10 | CC(C)C[C@H](N[C@@H](Cc1cncn1C(C)(C)C1CCCCC1)C(=O)O)C(=O)O [(2S)-2-{[(1S)-1-carboxy-2-[1-(2-cyclohexylpropan-2-yl)-1H-imidazol-5-yl]ethyl]amino}-4-methylpentanoic acid]
0.01 | > 10 | > 10 | Cc1ccc(Cn2cncc2C[C@H](N[C@@H](CC(C)C)C(=O)O)C(=O)O)cc1C [(2S)-2-{[(1S)-1-carboxy-2-{1-[(3,4-dimethylphenyl)methyl]-1H-imidazol-5-yl}ethyl]amino}-4-methylpentanoic acid]
0.0042 | > 10 | > 10 | Cc1cccc(Cn2cncc2C[C@H](N[C@@H](CC(C)C)C(=O)O)C(=O)O)c1 [(2S)-2-{[(1S)-1-carboxy-2-{1-[(3-methylphenyl)methyl]-1H-imidazol-5-yl}ethyl]amino}-4-methylpentanoic acid]
0.021 | > 10 |  | CC(C)C[C@H](N[C@@H](Cc1cncn1Cc1ccc(Cl)cc1)C(=O)O)C(=O)O [(2S)-2-{[(1S)-1-carboxy-2-{1-[(4-chlorophenyl)methyl]-1H-imidazol-5-yl}ethyl]amino}-4-methylpentanoic acid]
0.0014 | > 10 | > 10 | Cc1cc(C)cc(Cn2cncc2C[C@H](N[C@@H](CC(C)C)C(=O)O)C(=O)O)c1 [(2S)-2-{[(1S)-1-carboxy-2-{1-[(3,5-dimethylphenyl)methyl]-1H-imidazol-5-yl}ethyl]amino}-4-methylpentanoic acid]
